Read-outs that look alike come from different tables or passages of the source.
Columns and labels:
[1] = In vitro photo-release and hydrolytic release of dicamba in an aqueous medium (Example 36); type: physicochemical; conditions: 0.01 mM (0.005 mM for diesters); for Conversion to Dicamba, Dark, Day 0 / Conversion to Dicamba, Dark, Day 1 / Conversion to Dicamba, Dark, Day 2 / Conversion to Dicamba, Dark, Day 3 / Conversion to Dicamba, Dark, Day 4 / Conversion to Dicamba, Dark, Day 7 / Conversion to Dicamba, Dark, Day 14 / Conversion to dicamba, Dark, Day 10 / Conversion to Dicamba, Dark, Day 21 / Conversion to Dicamba, Dark, Day 28: amber (dark) bottle; for Conversion to Dicamba, Light, Day 0 / Conversion to Dicamba, Light, Day 1 / Conversion to Dicamba, Light, Day 2 / Conversion to Dicamba, Light, Day 3 / Conversion to Dicamba, Light, Day 4 / Conversion to Dicamba, Light, Day 7 / Conversion to Dicamba, Light, Day 14 / Conversion to dicamba, Light, Day 10 / Conversion to Dicamba, Light, Day 21 / Conversion to Dicamba, Light, Day 28: quartz tube
Protocol: This Example describes the determination of photo-lability and hydrolytic lability of dicamba esters in an aqueous medium. 1 mM solutions of the esters were prepared in acetonitrile (or […] solutions of dicamba diesters). The solutions were then diluted with deionized water to a concentration of 0.01 mM (or 0.005 mM for diesters). The solutions were then transferred to quartz tubes and amber bottles and held in a growth chamber by the procedure of Example 26. A 14-hour day was generally used at a constant temperature of 35° C. Hydrolytic activity was assessed by measuring the increase in dicamba concentration after day zero in the amber (dark) bottles. […] Photolysis manifested itself as increased conversion in the quartz tubes compared to the dark control.
This Example provides the results of an aqueous lability test following the protocol of Example 35 for several dicamba esters which convert to dicamba primarily by hydrolysis. As shown by the results in the table below, conversion of the dark controls generally equaled or exceeded conversion in the photolysis solutions.

velvetleaf [2] = experiment: Greenhouse post-emergent control of velvetleaf by emulsifiable concentrates (Example 37); type: in vivo; conditions: for pest or weed control at 140 g/ha / pest or weed control at 280 g/ha / pest or weed control at 420 g/ha / pest or weed control at 560 g/ha: Abutilon theophrasti, post-emergence, 504 h; for pest or weed control at 140 g/ha: read-out: % Control of velvetleaf, 140 g/ha; for pest or weed control at 280 g/ha: read-out: % Control of velvetleaf, 280 g/ha; for pest or weed control at 420 g/ha: read-out: % Control of velvetleaf, 420 g/ha; for pest or weed control at 560 g/ha: read-out: % Control of velvetleaf, 560 g/ha
Protocol: (§1) The efficacy of some photo-labile ester formulations from Example 28 for post-emergent control of velvetleaf was tested in the greenhouse. All formulations were tested at rates of 140, 280, 420, and 560 g dicamba equivalent per hectare rates and compared to the diglycolamine salt of dicamba (CLARITY®) at the same rates and untreated control plants. The velvetleaf plants were 10-15 cm in height at the time of spraying. Percent control was evaluated three weeks after treatment.
The methodology of Example 29 was used to evaluate the efficacy of several esters of dicamba which convert to dicamba by hydrolysis for post-emergent control of velvetleaf as emulsifiable concentrate formulations.

velvetleaf [3] = experiment: Greenhouse post-emergent control of velvetleaf by emulsifiable concentrates (Example 29); type: in vivo; conditions: three weeks after treatment
Protocol: as §1

broadleaf weeds = experiment: Control of broadleaf weeds by ester concentrates (statements of the description); type: in vivo; conditions: emulsifiable and suspension concentrates; Sesbania macrocarpa, morning glory, velvetleaf, Palmer amaranth, fat hen, sicklepod
[4] = In vitro dicamba photo-release from photo-labile dicamba esters, acetonitrile/10% water solvent (Example 27); type: physicochemical; conditions: acetonitrile containing 10% water
Protocol: (§2) This Example describes in vitro testing of dicamba photo-release by homogeneous solutions of photo-labile dicamba esters. The esters were dissolved in tetrahydrofuran (THF). Ester concentration was 0.1 mM. 25 ml of the solution was transferred to 22 mm tubes fabricated from graded seal quartz tubing with a 19/22 tapered seal at the top, which was closed with a tapered glass plug and secured with a plastic ring clamp. The solution was entirely below the quartz-to-glass transition, ensuring that the entire volume was exposed to the full spectrum.
(§3) The sealed tubes were placed in a Growth Chamber where they were exposed to simulated sunlight for 14 hours per day at 35° C. Dicamba concentrations in the solution were measured during the course of the photolysis.
(§4) A sample of the initial solution was reserved in a glass vial away from the light source and analyzed at the conclusion of the study, providing a measurement of the amount of dicamba present without illumination of the photolysis solution (the “dark control”).
This Example is another photolysis of photo-labile dicamba esters, but using acetonitrile containing 10% water by weight as the solvent. The experimental protocol is otherwise the same as in Example 18.

[5] = In vitro dicamba photo-release from photo-labile dicamba esters, tetrahydrofuran solvent (Example 26); type: physicochemical; conditions: THF, 0.1 mM ester
Protocol: as §2, §3, §4

## COc1ccc(COC(=O)c2c(Cl)ccc(Cl)c2OC)cc1 [Ester 29a, 4-methoxybenzyl ester of dicamba]
[1]
  Conversion to Dicamba, Dark, Day 0: 27%
  Conversion to Dicamba, Dark, Day 1: 81%
  Conversion to Dicamba, Dark, Day 2: 83%
  Conversion to Dicamba, Dark, Day 3: 83%
  Conversion to Dicamba, Dark, Day 4: 80%
  Conversion to Dicamba, Dark, Day 7: 84%
  Conversion to Dicamba, Dark, Day 14: 85%
  Conversion to Dicamba, Light, Day 0: 27%
  Conversion to Dicamba, Light, Day 1: 75%
  Conversion to Dicamba, Light, Day 2: 74%
  Conversion to Dicamba, Light, Day 3: 75%
  Conversion to Dicamba, Light, Day 4: 74%
  Conversion to Dicamba, Light, Day 7: 76%
  Conversion to Dicamba, Light, Day 14: 77%
Velvetleaf [2]; greenhouse, 140 g/ha, Example 37
  pest or weed control at 140 g/ha: 30%
Velvetleaf [2]; greenhouse, 280 g/ha, Example 37
  pest or weed control at 280 g/ha: 55%
Velvetleaf [2]; greenhouse, 420 g/ha, Example 37
  pest or weed control at 420 g/ha: 74.2%
Velvetleaf [2]; greenhouse, 560 g/ha, Example 37
  pest or weed control at 560 g/ha: 81.7%

## CCCCOc1ccc(C(=O)COC(=O)c2c(Cl)ccc(Cl)c2OC)cc1 [Ester 10, p-n-Butoxyphenacylmethyl Ester of Dicamba]
Velvetleaf [3]; 140 g dicamba equivalent per hectare
  % Control of velvetleaf, 140 g/ha: 23%
Velvetleaf [3]; 280 g dicamba equivalent per hectare
  % Control of velvetleaf, 280 g/ha: 33%
Velvetleaf [3]; 420 g dicamba equivalent per hectare
  % Control of velvetleaf, 420 g/ha: 28%
Velvetleaf [3]; 560 g dicamba equivalent per hectare
  % Control of velvetleaf, 560 g/ha: 33%
Broadleaf weeds
  control of a number of broadleaf weeds in field testing, in words: proven effective
[4]; no illumination
  Dark Control % dicamba: 8%
[4]; simulated sunlight, 1 day
  Conversion to dicamba, 1 day: 17%
[4]; simulated sunlight, 2 days
  Conversion to dicamba, 2 days: 19%
[4]; simulated sunlight, 3 days
  Conversion to dicamba, 3 days: 20%
[4]; simulated sunlight, 5 days
  Conversion to dicamba, 5 days: 24%
[4]; simulated sunlight, 7 days
  Conversion to dicamba, 7 days: 28%
[4]; simulated sunlight, 11 days
  Conversion to dicamba, 11 days: 32%
[4]; simulated sunlight, 13 days
  Conversion to dicamba, 13 days: 31%
[4]; simulated sunlight, 15 days
  Conversion to dicamba, 15 days: 32%
[4]; simulated sunlight, 19 days
  Conversion to dicamba, 19 days: 33%
[5]; initial solution kept away from the light source, analyzed at conclusion of study
  Dark Control % dicamba: 8%
[5]; simulated sunlight 14 hours per day, 35° C., 1 day
  Conversion to dicamba, 1 day: 16%
[5]; simulated sunlight 14 hours per day, 35° C., 2 days
  Conversion to dicamba, 2 days: 15%
[5]; simulated sunlight 14 hours per day, 35° C., 3 days
  Conversion to dicamba, 3 days: 16%
[5]; simulated sunlight 14 hours per day, 35° C., 5 days
  Conversion to dicamba, 5 days: 19%
[5]; simulated sunlight 14 hours per day, 35° C., 7 days
  Conversion to dicamba, 7 days: 20%
[5]; simulated sunlight 14 hours per day, 35° C., 9 days
  Conversion to dicamba, 9 days: 29%
[5]; simulated sunlight 14 hours per day, 35° C., 12 days
  Conversion to dicamba, 12 days: 35%
[5]; simulated sunlight 14 hours per day, 35° C., 15 days
  Conversion to dicamba, 15 days: 35%

## C=C(C(=O)OCC)C(OC(=O)c1c(Cl)ccc(Cl)c1OC)c1ccccc1[N+](=O)[O-] (stereo not shown) [Ester 31a]
[1]
  Conversion to Dicamba, Dark, Day 0: 16%
  Conversion to Dicamba, Dark, Day 1: 37%
  Conversion to Dicamba, Dark, Day 2: 43%
  Conversion to Dicamba, Dark, Day 3: 43%
  Conversion to Dicamba, Dark, Day 4: 44%
  Conversion to Dicamba, Dark, Day 7: 49%
  Conversion to dicamba, Dark, Day 10: 50%
  Conversion to Dicamba, Dark, Day 14: 51%
  Conversion to Dicamba, Dark, Day 21: 49%
  Conversion to Dicamba, Dark, Day 28: 50%
  Conversion to Dicamba, Light, Day 0: 16%
  Conversion to Dicamba, Light, Day 1: 45%
  Conversion to Dicamba, Light, Day 2: 48%
  Conversion to Dicamba, Light, Day 3: 46%
  Conversion to Dicamba, Light, Day 4: 45%
  Conversion to Dicamba, Light, Day 7: 46%
  Conversion to dicamba, Light, Day 10: 50%
  Conversion to Dicamba, Light, Day 14: 51%
  Conversion to Dicamba, Light, Day 21: 53%
  Conversion to Dicamba, Light, Day 28: 53%

## COc1c(Cl)ccc(Cl)c1C(=O)Oc1ccc(=O)n(CCC=O)n1 [Ester 33a]
[1]
  Conversion to Dicamba, Dark, Day 0: 13%
  Conversion to Dicamba, Dark, Day 1: 15%
  Conversion to Dicamba, Dark, Day 2: 18%
  Conversion to Dicamba, Dark, Day 3: 18%
  Conversion to Dicamba, Dark, Day 4: 22%
  Conversion to Dicamba, Dark, Day 7: 21%
  Conversion to dicamba, Dark, Day 10: 28%
  Conversion to Dicamba, Dark, Day 14: 37%
  Conversion to Dicamba, Dark, Day 21: 50%
  Conversion to Dicamba, Dark, Day 28: 55%
  Conversion to Dicamba, Light, Day 0: 13%
  Conversion to Dicamba, Light, Day 1: 18%
  Conversion to Dicamba, Light, Day 2: 20%
  Conversion to Dicamba, Light, Day 3: 19%
  Conversion to Dicamba, Light, Day 4: 22%
  Conversion to Dicamba, Light, Day 7: 23%
  Conversion to dicamba, Light, Day 10: 30%
  Conversion to Dicamba, Light, Day 14: 42%
  Conversion to Dicamba, Light, Day 21: 53%
  Conversion to Dicamba, Light, Day 28: 57%
Velvetleaf [2]
  pest or weed control at 140 g/ha: 15.8%
  pest or weed control at 280 g/ha: 27.5%
  pest or weed control at 420 g/ha: 22.5%
  pest or weed control at 560 g/ha: 30.8%
Velvetleaf [2]; greenhouse, emulsifiable concentrates
  post-emergent efficacy on velvetleaf compared with the salt, in words: reduced post-emergent efficacy

## CCOC(=O)CCn1nc(OC(=O)c2c(Cl)ccc(Cl)c2OC)ccc1=O [Ester 35a]
[1]
  Conversion to Dicamba, Dark, Day 0: 19%
  Conversion to Dicamba, Dark, Day 1: 66%
  Conversion to Dicamba, Dark, Day 2: 69%
  Conversion to Dicamba, Dark, Day 3: 68%
  Conversion to Dicamba, Dark, Day 4: 71%
  Conversion to Dicamba, Dark, Day 7: 74%
  Conversion to Dicamba, Dark, Day 14: 70%
  Conversion to Dicamba, Dark, Day 21: 70%
  Conversion to Dicamba, Dark, Day 28: 74%
  Conversion to Dicamba, Light, Day 0: 19%
  Conversion to Dicamba, Light, Day 1: 57%
  Conversion to Dicamba, Light, Day 2: 58%
  Conversion to Dicamba, Light, Day 3: 58%
  Conversion to Dicamba, Light, Day 4: 62%
  Conversion to Dicamba, Light, Day 7: 60%
  Conversion to Dicamba, Light, Day 14: 64%
  Conversion to Dicamba, Light, Day 21: 63%
  Conversion to Dicamba, Light, Day 28: 65%
Velvetleaf [2]
  pest or weed control at 140 g/ha: 35.8%
  pest or weed control at 280 g/ha: 60%
  pest or weed control at 420 g/ha: 85%
  pest or weed control at 560 g/ha: 87.5%

Source: US20170029355A1, “LABILE ESTERS OF AGROCHEMICALS FOR CONTROLLED RELEASE AND REDUCTION OF OFF-SITE MOVEMENT” (Monsanto Technology LLC, priority 2011, published 2017)
